Test results reported in ChEMBL document CHEMBL5149990, “New Protocol-Guided Exploitation of a Lysosomal Sulfatase Inhibitor to Suppress Cell Growth in Glioblastoma Multiforme” (J Med Chem, 2021).
Calls of active or inactive are those of the source. The rule behind the calls is not given here.

What was measured:
Homo sapiens [1] = species: Homo sapiens; assay: Binding affinity to lysosome sulfatase (unknown origin) assessed as Vmax; format: subcellular
Homo sapiens [2] = species: Homo sapiens; assay: Binding affinity to lysosome sulfatase (unknown origin) assessed as Km; format: subcellular
Homo sapiens [3] = species: Homo sapiens; assay: Binding affinity to sulfatase in human liver S9 fraction; format: subcellular
[4] = Drug localization in lysosome of human T98G cells by Lyso-Tracker Red based confocal laser scanning microscopy; format: ADME, cell-based
T98G [5] = assay: Cytotoxicity against human T98G cells assessed as reduction in cell viability incubated for 4 hrs by MTT assay; format: toxicity, cell-based
T98G [6] = assay: Binding affinity to sulfatase in human T98G cells assessed as increase in fluorescence intensity at 40 uM by confocal fluorescence microscopic analysis; format: cell-based
T98G [7] = assay: Cytotoxicity against human T98G cells assessed as reduction in cell viability at 3.5 to 350 uM incubated for 48 hrs by MTT assay relative to control; format: toxicity, cell-based; details: dose 3.5-350 µM
T98G [8] = assay: Binding affinity to sulfatase in human T98G cells assessed as reduction in fluorescence intensity at 125 uM in presence of 2-(2-Morpholinoethyl)-6-(((2S,3R,4S,5S,6R)-3,4,5-trihydroxy-6-(hydroxymethyl)tetrahydro-2H-pyran-2-yl)oxy)-1H-benzo[de]-isoquinoline-1,3(2H)-dione by confocal fluorescence microscopic analysis; format: cell-based
[9] = Inhibition of lysosome sulfatase (unknown origin) assessed as reduction in fluorescence intensity using 2-(2-Morpholinoethyl)-6-(((2S,3R,4S,5S,6R)-3,4,5-trihydroxy-6-(hydroxymethyl)tetrahydro-2H-pyran-2-yl)oxy)-1H-benzo[de]-isoquinoline-1,3(2H)-dione as substrate incubated for 60 mins by fluorescence based analysis; format: subcellular, Homo sapiens

## O=C1c2cccc3c(O[C@@H]4O[C@H](CO)[C@@H](O)[C@H](O)[C@H]4O)ccc(c23)C(=O)N1CCN1CCOCC1
Homo sapiens [1]
  Vmax: 70.9 nmol/min/mg
Homo sapiens [2]
  Km: 21.6 µM
Homo sapiens [3]
  Activity: Active
[4]
  Drug uptake: Active
T98G [5]
  Activity: Non-Toxic
T98G [6]
  Activity: Active

## CC1(C)[C@H](C(=O)O)N2C(=O)C[C@H]2S1(=O)=O [SULBACTAM]
T98G [7]
  Activity: 34%
T98G [8]
  Activity: Active
[9]
  IC50: 3.5 µM
